Holding throughout (format): cell-based
In one assay the test system is NCI-H358. Nature of the assay: Soft agar colony formation assay, colonies stained with MTT. As to conditions: Homo sapiens; NCI-H358, growth in soft agar, MTT absorbance 570 nm, 3 independent experiments. How it is done: (§1) Metabolic activity was quantified using Cell Proliferation Kit I (Roche, Basel, Switzerland). Cells were seeded in 96-well cell culture plates, using 5000 cells per well for NCI-H358 cells. After treatment, 10 μl of MTT solution was added and incubated for 2 h in CO2 incubator. Then 100 μl of solubilization buffer was added to each well and incubated overnight in CO2 incubator. Cell viability, assessed by the amount of metabolized MTT, was quantified by measuring absorbance at 570 nm.
(§2) MTT assay for the growth of different tumour cell lines with RAS mutations in soft agar with Tegaserode maleate.
(§3) NCI-H358, H358, H2122, ASPC-1, HCT-116, T24 and HT1080 cells were used for the soft agar colony formation assay. After the treatment with Tegaserode maleate, the colonies were stained with MTT and the value was quantified by measuring absorbance at 570 nm after solubilization. The results represent mean±SEM from 3 independent experiments.

In another assay the test system is ASPC1. The assay is described as above. The conditions noted are these: Homo sapiens; ASPC1, growth in soft agar, MTT absorbance 570 nm, 3 independent experiments. How it is done:
as §1, §2, §3

The subject of another assay is T24. The assay is described as above. As to conditions: Homo sapiens, T-24; T24, growth in soft agar, MTT absorbance 570 nm, 3 independent experiments. How it is done:
as §1, §2, §3

Another assay concerns HCT-116. The description is as above. As to conditions: Homo sapiens; HCT-116, growth in soft agar, MTT absorbance 570 nm, 3 independent experiments. How it is done: as §1, §2, §3
A further assay concerns HT1080. Described as above. The conditions noted are these: Homo sapiens, HT-1080; HT1080, growth in soft agar, MTT absorbance 570 nm, 3 independent experiments. How it is done: as §1, §2, §3
In another assay the test system is NCI-H2122. The assay is described as above. As to conditions: Homo sapiens; NCI-H2122, growth in soft agar, MTT absorbance 570 nm, 3 independent experiments. How it is done:
as §1, §2, §3

The next assay has as its system BaF3 KRAS G12C/Y96D. Nature of the assay: MTT assay for cell viability in 96 well cell culture plate. The conditions noted are these: Mus musculus, 48 h treatment. How it is done: as §1
(§4) FIGS. 3a) und 3b): MTT assay for cell viability in 96 well cell culture plate Cells were treated with compounds for 48 h and cell viability was evaluated by MTT assay. The results shown are mean from 3 independent experiments. DMSO-treated cells were set as 1. The results shown are mean±SEM from 1-3 independent experiments.
(§5) G12C/Y96D mutation is normally seen in patients, who develop resistance to G12C inhibitor. Thus, patients, who are resistant to G12C inhibitors can still be treated with Tegaserode maleate.
For orientation: Tetrazolium dyes change colour on reduction, which living cells bring about.

A further assay has as its system BaF3 KRAS G12C. Described as above. As to conditions: Mus musculus, 48 h treatment. How it is done:
as §1, §4, §5

Another assay concerns KRAS dependent cells. As to the kind of experiment: MTT assay for cell viability, KRAS dependent cells (FIG. 3a). As to conditions: irrespective of the presence of mutation, 48 h. How it is done: as §4, §5
The test system of assay [1] is RAS protein of RASOpathie. As to the kind of experiment: RASOpathie-Model; MTT assay for cell viability in 96 well cell culture plate. The conditions noted are these: 48 h treatment. How it is done:
FIG. 4: RASOpathie-Model of Tegaserode maleate; MTT assay for cell viability in 96 well cell culture plate
Cells were treated with Tegaserode maleate for 48 h and cell viability was evaluated by MTT assay. DMSO-treated cells were set as 1. The results shown are mean±SEM from 3 independent experiments.

The record followed here is patent publication US20250375419A1, “NOVEL RAS INHIBITORS” (KHR Biotec GmbH, priority 2022, published 2025).

What is called IC50 is the concentration that inhibits the measured activity by half. The low end stands for inhibition by little substance, the high end for a need for much substance. For the molecule `CCCCCNC(=N)N/N=C/c1c[nH]c2ccc(OC)cc12.O=C(O)/C=C\C(=O)O` [Tegaserode maleate, 2-[(5-Methoxy-1H-indol-3-yl)methylene]-N-pentyl-hydrazinecarboximidamide maleate], the IC50 in the assay with NCI-H358 was 5.39 µM; with ASPC1 it was 4.76 µM; in the assay on T24, 11.3 µM; in the assay on HCT-116, 3.12 µM; in the assay on HT1080, 2.43 µM; in the assay on NCI-H2122 it was 3.37 µM. The half-maximal inhibitory concentration (IC50) was found to be 2.86 µM with BaF3 KRAS G12C/Y96D and 10.2 µM in the assay with BaF3 KRAS G12C. In addition, the “inhibition of KRAS dependent cells” value with KRAS dependent cells is on record as “inhibits KRAS dependent cells irrespective of the presence of mutation”. Moreover, the “inhibition of RAS protein of RASOpathie (cell viability)” value in assay [1] was “inhibits RAS protein of RASOpathie”.
